Measurements taken from article PMC10587436, “A bacterial quorum sensing signal is a potent inhibitor of de novo pyrimidine biosynthesis in the globally abundant Emiliania huxleyi” (Frontiers in Microbiology, 2023).

How the values were obtained:
[1] = target: E. huxleyi dihydroorotate dehydrogenase (EhDHODH)
[2] = target: T1, E. huxleyi dihydroorotate dehydrogenase (EhDHODH); test: DCIP colorimetric DHODH activity assay, Morrison tight-binding fit; IC50 […]; type: biochemical, Emiliania huxleyi
T1 construct: ΔN20EhDHODH (first 20 residues truncated, start at residue 21; N-terminal eight-residue histidine tag)

IC50 [1] [µM]	SMILES	Ki [2] [µM]
43 ± 11	Cc1c(-c2ccc(-c3ccccc3F)cc2)nc2ccc(F)cc2c1C(=O)O [brequinar]	–
–	CCCCCCCc1cc(=O)c2ccccc2[nH]1 [HHQ]	0.0023 ± 0.0007
